Experimental data as given in patent publication EP4775036A2, “SYNERGISTIC FORMULATIONS FOR CONTROL AND REPELLENCY OF BITING ARTHROPODS” (Bedoukian Research, Inc., priority 2020, dated 2022).
Several values for one entry are separate records, joined by “and”; a condition that tells them apart may be missing. Equal entries are not always repeated.

Legend:
Aedes aegypti mosquitoes = assay: Arm in cage testing (Modified WHO - Nigel Hill protocol), dose response curves on human subjects, LDP line analysis; assay type: in vivo; conditions: for Index: ED50 comparison of LDP lines, lowest ED50 = 100; for RR: ED50 relative to the line with the lowest ED50
Method: A Modified WHO - Nigel Hill protocol was used for Dose Response curve generation. Three concurrent repetitions were conducted with 4 subjects (2 male, 2 female). Approximately 60 non blood-fed, female Aedes aegypti mosquitoes were placed in a 12"X12"X12" (28316.85 cm^3) plexi and screen cage.
Arms were inserted into the first cage for 30 seconds, with number of landings (with intent to bite) recorded at the end of the time interval. The same procedure was used for the 2nd and 3rd cage in succession. Control arm was inserted first, followed by the opposite arm treated with ethanol only (as a treatment control). The 'treatment arm' is then treated with dose 1 and inserted, then dose 2, dose 3, and so on. After complete protection was achieved, control arm was reinserted to verify continued activity.
Percent repellency was calculated by utilizing the formula [{(C-T)/C}*100]. Where C = the number of mosquitoes landing with intent to bite on the ethanol only treated arm, and T = the number of mosquitoes landing with intent to bite on the 'repellent' treated arm. LDP line® software (Bakr, E 2007) was used to determine ED50 (effective dose to repel 50%) and compare materials.
Following the Definition of Synergy (the interaction or cooperation of two or more organizations, substances, or other agents to produce a combined effect greater than the sum of their separate effects), an 'additive measure' was used to determine synergy in the laboratory testing, as well as in the human testing. […] Significance was determined by the use of 95% confidence intervals.
For human testing, the LDP Line software was used to determine "additive repellency" differences.

Aedes aegypti = assay: Laboratory screening, modified K & D chamber (Gupta Box), treated blood-filled membrane wells; assay type: in vivo; conditions: adjusted, relative to control
Method: A modified K & D chamber or "Gupta Box" was used to screen 4 compounds plus an untreated control, simultaneously. Five replicates of 250 adult female mosquitoes each were placed in clear plastic cages (Gupta boxes) with access to five warmed, blood-filled, membrane-covered wells. The mosquitoes used were Aedes aegypti. Membranes were treated with repellent dilutions or diluent only. Five replicates were tested, rotating positions within the chamber. Each replicate used a fresh batch of mosquitoes, blood and treated membranes. The number of mosquitoes probing each well was recorded at two minute intervals for 20 minutes. The total numbers of probes on each well were tallied at the end of the observation period and the average percentage repellency relative to the control was calculated for each formulation. To compare formulations from different tests, the control probes were adjusted to 100 for each test and the formula then applied to each formulation to adjust accordingly. For laboratory testing, additive repellency was determined by adding the adjusted percent repellency for each dose used in the combination treatment. This "Expected additive repellency" was then compared to the "actual repellency" seen when the combination was tested in the Gupta box.

[1] = DEET Combinations, calculations based on DEET dose
[2] = human arm in cage, DEET dose, DEET alone or in the combination (calculations based on DEET dosage)
[3] = 0.5% of the compound alone on membrane
[4] = 1% of the compound alone on membrane
[5] = human arm in cage, compound alone
[6] = PMD Combinations, calculations based on PMD dose
[7] = human arm in cage, PMD dose, PMD alone or in the combination (calculations based on PMD dosage)

CCN(CC)C(=O)c1cccc(C)c1 [DEET, N,N-Diethyl-m-toluamide]
ED90 (%AI) (Aedes aegypti mosquitoes; [1]): 1.443 %AI
Index (Aedes aegypti mosquitoes; [1]): 10.32
RR (Aedes aegypti mosquitoes; [1]): 9.69
% Repelled (Aedes aegypti mosquitoes; DEET alone at Dose 0.0351 % Active (its ED25)): 25%
ED25, Dose (% DEET) (Aedes aegypti mosquitoes; [2]): 0.035 % DEET and 0.0351 % DEET
ED50, Dose (% DEET) (Aedes aegypti mosquitoes; [2]): 0.1263 % DEET and 0.126 % DEET
ED75, Dose (% DEET) (Aedes aegypti mosquitoes; [2]): 0.4552 % DEET
ED90, Dose (% DEET) (Aedes aegypti mosquitoes; [2]): 1.4431 % DEET
ED95, Dose (% DEET) (Aedes aegypti mosquitoes; [2]): 2.8783 % DEET
percent repellency (Aedes aegypti; [3]): 29.55%
percent repellency (Aedes aegypti; [4]): 52.9%

CCCCCCCCC1CCC(=O)O1 (centres unmarked) [Gamma Dodecalactone, gamma-dodecalactone]
% Repelled (Aedes aegypti mosquitoes; Gamma Dodecalactone alone at Dose 0.4177 % Active (its ED25)): 25%
ED25, Dose (% γ Dodecalactone) (Aedes aegypti mosquitoes; [5]): 0.4177 % γ Dodecalactone
ED50, Dose (% γ Dodecalactone) (Aedes aegypti mosquitoes; [5]): 1.8022 % γ Dodecalactone
ED75, Dose (% γ Dodecalactone) (Aedes aegypti mosquitoes; [5]): 7.7764 % γ Dodecalactone
ED90, Dose (% γ Dodecalactone) (Aedes aegypti mosquitoes; [5]): 28.994 % γ Dodecalactone
ED95, Dose (% γ Dodecalactone) (Aedes aegypti mosquitoes; [5]): 63.726 % γ Dodecalactone

CC(=O)CCC=C(C)CCC=C(C)C [Geranyl Acetone, 6,10-dimethyl-5,9-undecadien-2-one]
% Repelled (Aedes aegypti mosquitoes; Geranyl Acetone alone at Dose 0.736 % Active (its ED25)): 25%
ED25, Dose (% Geranyl Acetone) (Aedes aegypti mosquitoes; [5]): 0.736 % Geranyl Acetone
ED50, Dose (% Geranyl Acetone) (Aedes aegypti mosquitoes; [5]): 2.831 % Geranyl Acetone
ED75, Dose (% Geranyl Acetone) (Aedes aegypti mosquitoes; [5]): 10.889 % Geranyl Acetone
ED90, Dose (% Geranyl Acetone) (Aedes aegypti mosquitoes; [5]): 36.608 % Geranyl Acetone
ED95, Dose (% Geranyl Acetone) (Aedes aegypti mosquitoes; [5]): 75.631 % Geranyl Acetone
percent repellency (Aedes aegypti; [3]): 26.7% and 26.69%

CC(O)C(=O)O (centres unmarked) [Lactic Acid, Lactic acid]
% Repelled (Aedes aegypti mosquitoes; Lactic Acid alone at Dose 2.7938 % Active (its ED25)): 25%
ED25, Dose (% Lactic Acid) (Aedes aegypti mosquitoes; [5]): 2.794 % Lactic Acid
ED50, Dose (% Lactic Acid) (Aedes aegypti mosquitoes; [5]): 6.143 % Lactic Acid
ED75, Dose (% Lactic Acid) (Aedes aegypti mosquitoes; [5]): 13.51 % Lactic Acid
ED90, Dose (% Lactic Acid) (Aedes aegypti mosquitoes; [5]): 27.45 % Lactic Acid
ED95, Dose (% Lactic Acid) (Aedes aegypti mosquitoes; [5]): 41.96 % Lactic Acid

CC1CCC(C(C)(C)O)C(O)C1 (centres unmarked) [PMD, para-menthane-3,8-diol]
ED90 (%AI) (Aedes aegypti mosquitoes; [6]): 3.846 %AI
Index (Aedes aegypti mosquitoes; [6]): 4.36
RR (Aedes aegypti mosquitoes; [6]): 22.94
% Repelled (Aedes aegypti mosquitoes; PMD alone at Dose 0.1275 % Active (its ED25)): 25%
ED25, Dose (% PMD) (Aedes aegypti mosquitoes; [7]): 0.128 % PMD and 0.1275 % PMD
ED50, Dose (% PMD) (Aedes aegypti mosquitoes; [7]): 0.4128 % PMD and 0.413 % PMD
ED75, Dose (% PMD) (Aedes aegypti mosquitoes; [7]): 1.3362 % PMD
ED90, Dose (% PMD) (Aedes aegypti mosquitoes; [7]): 3.8464 % PMD
ED95, Dose (% PMD) (Aedes aegypti mosquitoes; [7]): 7.2415 % PMD
percent repellency (Aedes aegypti; [4]): 26.35% and 26.4%
percent repellency (Aedes aegypti; 1.5% of the compound alone on membrane): 34.6%
